In US10399992B2, “Process for preparing AD-35” (Zhejiang Hisun Pharmaceutical Co., Ltd., priority 2016, dated 2019):

Assays:
acetylcholinesterase = acetylcholinesterase (Homo sapiens, UniProt P22303); assay: inhibiting acetylcholinesterase in vitro; format: biochemical; conditions: compared with donepezil
[1] = Phase 1 Clinical Single Ascending Dose study (SAD); format: in vivo; conditions: subjects; 90 mg in a single dose
[2] = chelation of transition metal ions in vitro; format: physicochemical
TNF-α = assay: rat model of Alzheimer's disease induced by Aβ25-35: TNF-α production and release; format: in vivo
[3] = acute toxicity test in mice; conditions: compared with donepezil
nerve cells = assay: rat model of Alzheimer's disease induced by Aβ25-35: toxicity of Aβ25-35 to nerve cells; format: in vivo
Morris water maze test = format: in vivo; conditions: compared with donepezil
IL-1β = assay: rat model of Alzheimer's disease induced by Aβ25-35: IL-1β production and release; format: in vivo

Sequence of acetylcholinesterase (P22303 32-614): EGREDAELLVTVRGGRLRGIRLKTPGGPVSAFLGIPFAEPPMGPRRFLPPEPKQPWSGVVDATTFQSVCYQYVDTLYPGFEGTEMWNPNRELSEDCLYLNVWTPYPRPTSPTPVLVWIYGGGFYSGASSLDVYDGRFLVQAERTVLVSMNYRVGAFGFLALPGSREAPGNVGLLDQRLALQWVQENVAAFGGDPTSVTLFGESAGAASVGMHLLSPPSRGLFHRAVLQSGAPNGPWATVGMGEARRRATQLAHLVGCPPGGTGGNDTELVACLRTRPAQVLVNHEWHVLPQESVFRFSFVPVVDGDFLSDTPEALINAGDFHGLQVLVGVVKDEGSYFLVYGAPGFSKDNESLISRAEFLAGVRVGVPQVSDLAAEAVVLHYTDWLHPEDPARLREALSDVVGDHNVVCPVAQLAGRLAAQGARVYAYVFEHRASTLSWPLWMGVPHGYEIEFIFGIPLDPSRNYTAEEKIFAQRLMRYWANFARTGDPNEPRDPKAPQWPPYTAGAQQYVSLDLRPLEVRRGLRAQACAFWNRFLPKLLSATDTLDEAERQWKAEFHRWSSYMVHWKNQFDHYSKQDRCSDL

O=C1c2cc3c(cc2C2(CC2)N1CCC1CCN(Cc2ccccn2)CC1)OCO3 [AD-35, 6-[2-[1-(2-pyridylmethyl)-4-piperidinyl]ethyl]spiro[[1,3]dioxolo[4,5-f]isoindole-7,1′-cyclopropane]-5-one phosphate]
activity of inhibiting acetylcholinesterase in vitro relative to donepezil (acetylcholinesterase): about one-tenth of the activity of donepezil | adverse reactions [1]: did not develop adverse reactions | ability to chelate transition metal ions such as Cu^2+ [2]: exhibits a certain ability to chelate transition metal ions | production and release of pro-inflammatory cytokine TNF-α (TNF-α): significantly inhibit | acute toxicity [3]: much less toxic than donepezil | toxicity of Aβ25-35 to nerve cells (nerve cells): greatly reduces the toxicity of Aβ25-35 to nerve cells | efficacy in the Morris water maze test (improving memory and learning ability) (Morris water maze test): comparable efficacy to that of donepezil | production and release of pro-inflammatory cytokine IL-1β (IL-1β): significantly inhibit
